We go through three compounds from ChEMBL document CHEMBL4622945, “Synthesis and antiproliferative activity of C- and N-terminal analogues of culicinin D” (Bioorg Med Chem Lett, 2020).

Common to all, as to type: functional, cell-based
One experiment has as its system NCI-H460. Nature of the experiment: Antiproliferative activity against human NCI-H460 cells assessed as reduction in cell growth by SRB assay. Background: In SRB staining, fixed cells bind dye roughly in proportion to their protein.
A further experiment deals with T47D. Kind of experiment: Antiproliferative activity against human T47D cells assessed as reduction in cell growth by SRB assay.
In another experiment the test system is MDA-MB-468. Kind of experiment: Antiproliferative activity against human MDA-MB-468 cells assessed as reduction in cell growth by SRB assay.
The next experiment relates to SK-BR-3. Nature of the experiment: Antiproliferative activity against human SKBR3 cells assessed as reduction in cell growth by SRB assay.

Square brackets hold non-standard residues; d marks the D form. Peptide text beside a SMILES is read from it. * marks the point of attachment. NH((S)CH(Me)CH2NHC2H4OH) = C[C@@H](CNCCO)N*; Gly(octyl) = CCCCCCCC[C@H](N)C(=O)O; Cha = N[C@@H](CC1CCCCC1)C(=O)O; X2 = C[C@@H](CN1CCOCC1)N*; NHCH2CH2NHMe = CNCCN*; Aib = CC(C)(N)C(=O)O; Butyryl = CCCC(=O)*; βAla = NCCC(=O)O

Broadly, the IC50 is the midpoint of a concentration-inhibition curve. Take `CCCCCCCC[C@H](NC(=O)C(C)(C)NC(=O)C(C)(C)NC(=O)[C@H](CC1CCCCC1)NC(=O)[C@@H]1CCCN1C(=O)CCC)C(=O)N[C@@H](CC(C)C)C(=O)NC(C)(C)C(=O)N[C@@H](CC(C)C)C(=O)NCCC(=O)NCCNC` (Butyryl-P[Cha][Aib][Aib][Gly(octyl)]L[Aib]L[βAla]-NHCH2CH2NHMe): the half-inhibitory concentration (IC50) with NCI-H460 amounted to 10 nM; in the experiment with T47D, 8 nM; in the experiment with MDA-MB-468, 5 nM; in the experiment with SK-BR-3, 27 nM.
Turning to `CCCCCCCC[C@H](NC(=O)C(C)(C)NC(=O)C(C)(C)NC(=O)[C@H](CC1CCCCC1)NC(=O)[C@@H]1CCCN1C(=O)CCC)C(=O)N[C@@H](CC(C)C)C(=O)NC(C)(C)C(=O)N[C@@H](CC(C)C)C(=O)NCCC(=O)N[C@@H](C)CN1CCOCC1` (Butyryl-P[Cha][Aib][Aib][Gly(octyl)]L[Aib]L[βAla]-X2), the IC50 in the experiment on NCI-H460 was 34 nM; with T47D, 36 nM; in the experiment with MDA-MB-468 it was 59 nM; in the experiment with SK-BR-3 it was 99 nM.
In the same order, the values of `CCCCCCCC[C@H](NC(=O)C(C)(C)NC(=O)C(C)(C)NC(=O)[C@H](CC1CCCCC1)NC(=O)[C@H](C)NC(=O)CCC)C(=O)N[C@@H](CC(C)C)C(=O)NC(C)(C)C(=O)N[C@@H](CC(C)C)C(=O)NCCC(=O)N[C@@H](C)CNCCO` (Butyryl-A[Cha][Aib][Aib][Gly(octyl)]L[Aib]L[βAla]-{NH((S)CH(Me)CH2NHC2H4OH)}) are 2 nM, 5 nM, 3 nM and 10 nM.
